According to US7173063B1, “Topoisomerase poisons for the treatment of proliferative disorders” (Fred Hutchinson Cancer Research Center, priority 2000, dated 2007):

What was measured:
[1] = molecular target: T1, yeast Topo I (Saccharomyces cerevisiae, UniProt P04786); experiment: Toxicity in yeast overexpressing yeast Topo I (yTOP1) or ytop1-vac mutant; format: cell-based; conditions: GAL promoter, galactose-induced, vs vector
T1 construct: expressed in transfected cells; host or cells: S. cerevisiae BY4705 (S288C background), plasmid pyTOP1 under the GAL promoter, vector pRS416
T1 sequence (P04786 1-769): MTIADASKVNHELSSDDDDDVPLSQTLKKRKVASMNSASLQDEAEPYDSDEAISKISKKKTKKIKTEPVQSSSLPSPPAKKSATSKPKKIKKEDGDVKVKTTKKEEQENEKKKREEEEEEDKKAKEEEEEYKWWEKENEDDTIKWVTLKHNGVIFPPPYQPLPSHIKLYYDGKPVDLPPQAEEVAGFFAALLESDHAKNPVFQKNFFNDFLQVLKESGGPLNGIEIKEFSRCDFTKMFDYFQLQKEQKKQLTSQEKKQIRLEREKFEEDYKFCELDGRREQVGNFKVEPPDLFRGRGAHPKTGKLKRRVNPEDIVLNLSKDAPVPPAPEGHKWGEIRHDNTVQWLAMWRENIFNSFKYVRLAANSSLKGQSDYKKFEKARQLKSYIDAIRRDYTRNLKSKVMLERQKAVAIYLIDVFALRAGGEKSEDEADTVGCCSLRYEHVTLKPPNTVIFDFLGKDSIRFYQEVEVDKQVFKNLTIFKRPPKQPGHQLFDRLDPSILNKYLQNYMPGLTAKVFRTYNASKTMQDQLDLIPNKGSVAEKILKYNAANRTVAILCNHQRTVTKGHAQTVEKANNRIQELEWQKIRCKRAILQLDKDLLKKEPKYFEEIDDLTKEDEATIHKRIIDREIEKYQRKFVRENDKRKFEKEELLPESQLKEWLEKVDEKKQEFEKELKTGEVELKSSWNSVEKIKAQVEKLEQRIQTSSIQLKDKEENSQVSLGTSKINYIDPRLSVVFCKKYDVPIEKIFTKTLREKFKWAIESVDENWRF
Source text: The strains are derived from the A364a genetic background, with the exception of BY4705, which is derived from the S288C background. Gene disruptions were generated by PCR fragment directed replacement (Baudin, et al., Nucleic Acids Research 21: 3329–30 (1993), Guldener, et al., Nucleic Acids Research 24: 2519–24 (1996)). Yeast overexpressing topoisomerase II was constructed by a PCR fragment directed promoter replacement of the topoisomerase II promoter with the yeast GPD promoter flanked upstream by the URA3 marker. All strains (except BY4705) bear the pleitropic drug sensitizing mutations erg6, pdr1, and pdr3 (Balzi, et al., Journal of Bioenergetics & Biomembranes 27: 71–6 (1995), Delaveau, et al, Molecular & General Genetics 244: 501–11 (1994), Gaber, et al., Molecular & Cellular Biology 9: 3447–56 (1989), Saunders, et al., Canadian Journal of Genetics & Cytology, 24: 493–503 (1982). Subik, et al, Current Genetics 10: 665–70 (1986)). The haploid yeast strain BY4705 (Brachmann, et al., Yeast 14: 115–32 (1998)) was used in the experiments described in FIG. 5. Plasmids expressing yeast or human topoisomerase I genes under the GAL promoter (Knab, et al., Journal of Biological Chemistry 268: 22322–30 (1993). Knab, et al., Journal of Biological Chemistry 270: 6141–8 (1995)) were transformed into BY4705 using standard procedures.
Yeast toxicity assays were performed essentially as follows: Exponentially growing cultures of the appropriate strains were diluted in synthetic complete media to a concentration of 7.4×10^4 cells/mL, and aliquots (135 μL) were transferred to each well of clear flat-bottomed 96 well plates. Compounds were added in duplicate or triplicate as 15 μL of the appropriate dilution in 5% DMSO. A 15 μL portion of 5% DMSO was added to control wells. […] Cell growth (OD660) in treated wells was plotted as a percentage of the growth in at least four averaged solvent control wells for the same strain. Camptothecin sodium salt (camptothecin Na) was the agent used in all yeast assays as standard.
In this regard, the sensitivity of yeast strains overexpressing either human or yeast topoisomerase I genes (hTOP1 or yTOP1, respectively) under the control of the inducible GAL promoter (see, for example, Knab, et al., Journal of Biological Chemistry 268: 22322–30 (1993); and Knab, et al., Journal of Biological Chemistry 270: 6141–8 (1995)) were used. Additionally, the sensitivity of yeast overexpressing the Topo I-VAC mutant enzyme, containing two amino acid substitutions (htop1-vac and ytop1-vac) that render topoisomerase I insensitive to the action of camptothecin were also examined (see, for example, Knab, et al., Journal of Biological Chemistry 268: 22322–30 (1993); and Knab, et al., Journal of Biological Chemistry 270: 6141–8 (1995)).

[2] = Cell based assays (toxicity, unspecified)

SMILES: O=c1c(Cl)c(Cl)cnn1CCCl [compound IIa]
- effect of yTOP1 overexpression on toxicity [1]: accentuates the toxicity
- IC50 compared to camptothecin [2]: higher IC50's

SMILES: O=C(CCl)Nc1ccc(C(=O)N/N=C/c2ccc(Cl)cc2)cc1 [compound Ia]
- effect of yTOP1 overexpression on toxicity [1]: Little or no accentuation
- IC50 compared to camptothecin [2]: higher IC50's
